Converted amounts (≈) assume the structure as drawn.
How the values were obtained:
Format in all cases: functional
[1] = test system: Staphylococcus aureus; assay: Antibacterial activity against Staphylococcus aureus MTCC 1430 at 100 ug/ml after 18 hr by cup-plate method; conditions: MTCC 1430, 18 h, read-out: DIZ
[2] = test system: Pseudomonas aeruginosa; assay: Antibacterial activity against Pseudomonas aeruginosa MTCC 424 after 24 hr by broth dilution method; conditions: MTCC 424, 24 h
[3] = test system: Pseudomonas aeruginosa; assay: Antibacterial activity against Pseudomonas aeruginosa MTCC 424 at 1500 ug/ml after 18 hr by cup-plate method; conditions: MTCC 424, 18 h, read-out: DIZ
[4] = test system: Escherichia coli; assay: Antibacterial activity against Escherichia coli MTCC 1573 at 100 ug/ml after 18 hr by cup-plate method; conditions: MTCC 1573, 18 h, read-out: DIZ
[5] = test system: Pseudomonas fluorescens; assay: Antibacterial activity against Pseudomonas fluorescens MTCC 2421 at 1000 ug/ml after 18 hr by cup-plate method; conditions: MTCC 2421, 18 h, read-out: DIZ
[6] = test system: Pseudomonas aeruginosa; assay: Antibacterial activity against Pseudomonas aeruginosa MTCC 424 at 200 ug/ml after 18 hr by cup-plate method; conditions: MTCC 424, 18 h, read-out: DIZ
[7] = test system: Micrococcus luteus; assay: Antibacterial activity against Micrococcus luteus MTCC 1538 at 1000 ug/ml after 18 hr by cup-plate method; conditions: MTCC 1538, 18 h, read-out: DIZ
[8] = test system: Penicillium chrysogenum; assay: Antifungal activity against Penicillium chrysogenum MTCC 161 at 200 ug/ml after 18 hr by cup-plate method; conditions: MTCC 161, 18 h, read-out: DIZ
[9] = test system: Bacillus subtilis; assay: Antibacterial activity against Bacillus subtilis MTCC 441 at 100 ug/ml after 18 hr by cup plate method; conditions: MTCC 441, 18 h, read-out: DIZ
[10] = test system: Penicillium chrysogenum; assay: Antifungal activity against Penicillium chrysogenum MTCC 161 at 1000 ug/ml after 18 hr by cup-plate method; conditions: MTCC 161, 18 h, read-out: DIZ
[11] = test system: Pseudomonas fluorescens; assay: Antibacterial activity against Pseudomonas fluorescens MTCC 2421 at 1500 ug/ml after 18 hr by cup-plate method; conditions: MTCC 2421, 18 h, read-out: DIZ
[12] = test system: Bacillus pumilus; assay: Antibacterial activity against Bacillus pumilus MTCC 1456 at 200 ug/ml after 18 hr by cup-plate method; conditions: MTCC 1456, 18 h, read-out: DIZ
[13] = test system: Penicillium chrysogenum; assay: Antifungal activity against Penicillium chrysogenum MTCC 161 after 24 hr by broth dilution method; conditions: MTCC 161, 24 h
[14] = test system: Pseudomonas fluorescens; assay: Antibacterial activity against Pseudomonas fluorescens MTCC 2421 at 100 ug/ml after 18 hr by cup-plate method; conditions: MTCC 2421, 18 h, read-out: DIZ
[15] = test system: Penicillium chrysogenum; assay: Antifungal activity against Penicillium chrysogenum MTCC 161 at 100 ug/ml after 18 hr by cup-plate method; conditions: MTCC 161, 18 h, read-out: DIZ
[16] = test system: Escherichia coli; assay: Antibacterial activity against Escherichia coli MTCC 1573 at 1500 ug/ml after 18 hr by cup-plate method; conditions: MTCC 1573, 18 h, read-out: DIZ
[17] = test system: Bacillus subtilis; assay: Antibacterial activity against Bacillus subtilis MTCC 441 at 1500 ug/ml after 18 hr by cup plate method; conditions: MTCC 441, 18 h, read-out: DIZ
[18] = test system: Aspergillus niger; assay: Antifungal activity against Aspergillus niger MTCC 2546 at 200 ug/ml after 18 hr by cup-plate method; conditions: MTCC 2546, 18 h, read-out: DIZ
[19] = test system: Pseudomonas fluorescens; assay: Antibacterial activity against Pseudomonas fluorescens MTCC 2421 at 200 ug/ml after 18 hr by cup-plate method; conditions: MTCC 2421, 18 h, read-out: DIZ
[20] = test system: Staphylococcus aureus; assay: Antibacterial activity against Staphylococcus aureus MTCC 1430 at 1500 ug/ml after 18 hr by cup-plate method; conditions: MTCC 1430, 18 h, read-out: DIZ
[21] = test system: Bacillus subtilis; assay: Antibacterial activity against Bacillus subtilis MTCC 441 at 200 ug/ml after 18 hr by cup plate method; conditions: MTCC 441, 18 h, read-out: DIZ
[22] = test system: Bacillus subtilis; assay: Antibacterial activity against Bacillus subtilis MTCC 441 at 500 ug/ml after 18 hr by cup plate method; conditions: MTCC 441, 18 h, read-out: DIZ
[23] = test system: Penicillium chrysogenum; assay: Antifungal activity against Penicillium chrysogenum MTCC 161 at 500 ug/ml after 18 hr by cup-plate method; conditions: MTCC 161, 18 h, read-out: DIZ
[24] = test system: Aspergillus niger; assay: Antifungal activity against Aspergillus niger MTCC 2546 after 24 hr by broth dilution method; conditions: MTCC 2546, 24 h
[25] = test system: Penicillium chrysogenum; assay: Antifungal activity against Penicillium chrysogenum MTCC 161 at 1500 ug/ml after 18 hr by cup-plate method; conditions: MTCC 161, 18 h, read-out: DIZ
[26] = test system: Micrococcus luteus; assay: Antibacterial activity against Micrococcus luteus MTCC 1538 after 24 hr by broth dilution method; conditions: MTCC 1538, 24 h
[27] = test system: Staphylococcus aureus; assay: Antibacterial activity against Staphylococcus aureus MTCC 1430 at 500 ug/ml after 18 hr by cup-plate method; conditions: MTCC 1430, 18 h, read-out: DIZ

## C(=N\c1nc[nH]n1)/c1cccs1
[1]
  zone of inhibition at 100 µg/mL: 11 mm
[2]
  MIC: 200 µg/mL (≈ 1120 µM)
[3]
  zone of inhibition at 1500 µg/mL: 20 mm
[4]
  zone of inhibition at 100 µg/mL: 14 mm
[5]
  zone of inhibition at 1000 µg/mL: 18 mm
[6]
  zone of inhibition at 200 µg/mL: 13 mm
[7]
  zone of inhibition at 1000 µg/mL: 20 mm
[8]
  zone of inhibition at 200 µg/mL: 15 mm
[9]
  zone of inhibition at 100 µg/mL: 10 mm
[10]
  zone of inhibition at 1000 µg/mL: 18 mm
[11]
  zone of inhibition at 1500 µg/mL: 21 mm
[12]
  zone of inhibition at 200 µg/mL: 15 mm
[13]
  MIC: 400 µg/mL (≈ 2240 µM)
[14]
  zone of inhibition at 100 µg/mL: 11 mm
[15]
  zone of inhibition at 100 µg/mL: 13 mm
[16]
  zone of inhibition at 1500 µg/mL: 21 mm
[17]
  zone of inhibition at 1500 µg/mL: 22 mm
[18]
  zone of inhibition at 200 µg/mL: 13 mm
[19]
  zone of inhibition at 200 µg/mL: 13 mm
[20]
  zone of inhibition at 1500 µg/mL: 19 mm
[21]
  zone of inhibition at 200 µg/mL: 11 mm
[22]
  zone of inhibition at 500 µg/mL: 14 mm
[23]
  zone of inhibition at 500 µg/mL: 16 mm
[24]
  MIC: 300 µg/mL (≈ 1680 µM)
[25]
  zone of inhibition at 1500 µg/mL: 19 mm
[26]
  MIC: 200 µg/mL (≈ 1120 µM)
[27]
  zone of inhibition at 500 µg/mL: 16 mm

From ChEMBL document CHEMBL3045835, “Comparative study of conventional and microwave-assisted synthesis of some Schiff bases and their potential as antimicrobial agents” (2012)
